Counter-ions that a name gives are not always drawn.
SMILES	melting point
CCOC(=O)c1cc(-c2csc(-c3ccnc(NCc4ccco4)c3)n2)c(=O)[nH]c1C (as salt: HCl) [Example 53, Ethyl 5-(2-(2-[(fur-2-ylmethyl)-amino]-pyridin-4-yl}-thiazol-4-yl)-2-methyl-6-oxo-1,6-dihydro-3-pyridinecarboxylate]	260 °C (dec.)
CCOC(=O)c1cc(-c2csc(-c3ccnc(NCc4ccc(F)cc4)c3)n2)c(=O)[nH]c1C (as salt: HCl) [Example 55, Ethyl 5-{2-[2-(4-fluoro-benzylamino)-pyridin-4-yl]-thiazol-4-yl}-2-methyl-6-oxo-1,6-dihydro-3-pyridinecarboxylate]	280 °C (dec.)
CCCCNc1cc(-c2nc(-c3cc(C(=O)OCC)c(C)[nH]c3=O)cs2)ccn1 (as salt: HCl) [Example 56, Ethyl 5-[2-(2-butylamino-pyridin-4-yl)-thiazol-4-yl]-2-methyl-6-oxo-1,6-dihydro-3-pyridinecarboxylate]	230 °C (dec.)
CCOC(=O)c1cc(-c2csc(-c3ccnc(NCC(N)=O)c3)n2)c(=O)[nH]c1C (as salt: HCl) [Example 57, Ethyl 5-{2-[2-(carbamoylmethyl-amino)-pyridin-4-yl]-thiazol-4-yl}-2-methyl-6-oxo-1,6-dihydro-3-pyridinecarboxylate]	270 °C (dec.)
CCOC(=O)c1cc(-c2csc(-c3ccnc(NCCNC(C)=O)c3)n2)c(=O)[nH]c1C (as salt: HCl) [Example 58]	270 °C (dec.)
Cc1[nH]c(=O)c(-c2csc(-c3ccnc(NCC4CC4)c3)n2)cc1C(=O)NCC1CC1 (as salt: HCl) [Example 60, N-(Cyclopropylmethyl)-5-(2-(2-((cyclopropylmethyl)amino)-4-pyridinyl)-1,3-thiazol-4-yl)-2-methyl-6-oxo-1,6-dihydro-3-pyridinecarboxamide]	> 260 °C
CCOC(=O)c1cc(-c2csc(-c3ccnc(NCC4CC4)c3)n2)c(=O)[nH]c1C (as salt: HCl) [Example 61, Ethyl 5-{2-[2-(cyclopropylmethyl-amino)-pyridin-4-yl]-thiazol-4-yl}-2-methyl-6-oxo-1,6-dihydro-3-pyridinecarboxylate]	> 260 °C
CCOC(=O)c1cc(-c2csc(-c3ccnc(NCC4CCCC4)c3)n2)c(=O)[nH]c1C (as salt: HCl) [Example 62, Ethyl 5-{2-[2-(Cyclopentyl)methylamino-pyridin-4-yl]-thiazol-4-yl}-2-methyl-6-oxo-1,6-dihydro-3-pyridinecarboxylate]	260 °C (dec.)
COc1ccc(CNC(=O)c2cc(-c3csc(-c4ccnc(NCc5ccc(OC)cc5)c4)n3)c(=O)[nH]c2C)cc1 (as salt: HCl) [Example 63, 5-{2-[2-(4-Methoxy-benzyamino)-pyridin-4-yl]-thiazol-4-yl}-2-methyl-6-oxo-1,6-dihydropyridine-3-carboxylic acid 4-methoxy-benzylamide]	280 °C (dec.)
CCOC(=O)c1cc(-c2csc(-c3ccnc(NC)c3)n2)c(=O)[nH]c1C(C)C (as salt: HCl) [Example 94, Ethyl 5-[2-(methylamino-pyridin-4-yl)-thiazol-4-yl]-2-isopropyl-6-oxo-1,6-dihydro-3-pyridinecarboxylate]	> 230 °C
CCOC(=O)c1cc(-c2csc(-c3ccnc(N(C)C)c3)n2)c(=O)[nH]c1C(C)C (as salt: hydrochloride) [Example 93, Ethyl 5-[2-(dimethylamino-pyridin-4-yl)-thiazol-4-yl]-2-isopropyl-6-oxo-1,6-dihydro-3-pyridinecarboxylate]	> 230 °C
CCOC(=O)c1cc(-c2csc(N(C)S(=O)(=O)c3ccccc3)n2)c(=O)[nH]c1C (as salt: salt) [Example 68, Ethyl 2-methyl-5-{2-[methyl(phenylsulfonyl)amino](1,3-thiazol-4-yl)}-6-oxo-1,6-dihydro-3-pyridinecarboxylate]	231 to 234 °C
O=c1[nH]cc(Oc2ccccc2)cc1-c1csc(-c2ccncc2)n1 (as salt: salt) [Example 71, 5-Phenoxy-3-(2-(4-pyridinyl)-1,3-thiazol-4-yl)-2(1H)-pyridinone]	243 to 245 °C
CCOC(=O)c1cc(-c2csc(CS(=O)(=O)c3ccc(Cl)cc3)n2)c(=O)[nH]c1C [Example 25]	300 °C (dec.)
CCOC(=O)c1cc(-c2csc(CS(=O)(=O)Cc3ccc(F)cc3)n2)c(=O)[nH]c1C [Example 26, Ethyl 5-[2-({[(4-fluorophenyl)methyl]sulfonyl}mthyl)(1,3-thiazol-4-yl)]-2-methyl-6-oxo-1,6-dihydro-3-pyridinecarboxylate]	300 °C (dec.)
CCOC(=O)c1cc(-c2csc(-c3cccs3)n2)c(=O)[nH]c1C [Example 27]	230 °C (dec.)
CCOC(=O)c1cc(-c2csc(CSc3ccccc3)n2)c(=O)[nH]c1C [Example 28, Ethyl 2-methyl-6-oxo-5-{2-(phenylthiomethyl)(1,3-thiazol-4-yl)}-1,6-dihydro-3-pyridinecarboxylate]	260 °C (dec.)
CCOC(=O)c1cc(-c2csc(-c3ccnc(CC)c3)n2)c(=O)[nH]c1C [Example 29]	270 °C (dec.)
CCOC(=O)c1cc(-c2csc(CS(=O)(=O)Cc3cccc(C(F)(F)F)c3)n2)c(=O)[nH]c1C [Example 30]	300 °C (dec.)
CCOC(=O)c1cc(-c2csc(-c3ccsc3)n2)c(=O)[nH]c1C [Example 31, Ethyl 2-methyl-6-oxo-5-{2-[3-thienyl](1,3-thiazol-4-yl)}-1,6-dihydro-3-pyridinecarboxylate]	230 °C (dec.)
CCOC(=O)c1cc(-c2csc(-c3ccc4c(c3)OCO4)n2)c(=O)[nH]c1C [Example 32, Ethyl 5-(2-(2H-benzo[d]1,3-dioxolan-5-yl)(1,3-thiazol-4-yl))-2-m thyl-6-oxo-1,6-dihydro-3-pyridinecarboxylate]	230 °C (dec.)
CCOC(=O)c1cc(-c2csc(-c3ccccc3)n2)c(=O)[nH]c1C [Example 33, Ethyl 2-methyl-6-oxo-5-{2-phenyl(1,3-thiazol-4-yl)}-1,6-dihydro-3-pyridinecarboxylate]	260 °C (dec.)
CCOC(=O)c1cc(-c2csc(-c3ccc(F)cc3)n2)c(=O)[nH]c1C [Example 34, Ethyl 2-methyl-6-oxo-5-{2-[4-fluorophenyl](1,3-thiazol-4-yl)}-1,6-dihydro-3-pyridinecarboxylate]	260 °C (dec.)
CCOC(=O)c1cc(-c2csc(-c3c(Cl)cccc3Cl)n2)c(=O)[nH]c1C [Example 35, Ethyl 5-[2-(2,6-dichlorophenyl)(1,3-thiazol-4-yl)]2-methyl-6-oxo-1,6-dihydro-3-pyridinecarboxylate]	260 °C (dec.)
CCOC(=O)c1cc(-c2csc(-c3csc(C)n3)n2)c(=O)[nH]c1C [Example 36]	195 °C (dec.)
CCOC(=O)c1cc(-c2csc(CS(=O)(=O)Cc3ccco3)n2)c(=O)[nH]c1C [Example 37, Ethyl 5-(2-{[(2-furylmethyl)sulfonyl]methyl}(1,3-thiazol-4-yl))-2-methyl-6-oxo-1,6-dihydro-3-pyridinecarboxylate]	290 °C (dec.)
